{"source": "patent EP3045469A1", "about": "“POLYMYXIN DERIVATIVE AND USES THEREOF” (priority 2015, dated 2016)", "key": {"E. coli JMI 109": {"system": "E. coli JMI 109", "test": "MIC assay (CLSI broth microdilution; checkerboard with rifampin)", "type": "cell-based, Escherichia coli", "conditions": "in combination with rifampin (0.25 µg/mL), duplicate checkerboard assays; polymyxin-nonsusceptible strain", "procedure": "Synergy studies were performed by using polymyxin derivatives in combination with rifampin, a model compound for such antibacterial agents that the intact outer membrane of Gram-negative bacteria acts as a permeability barrier."}, "[1]": {"test": "7-day intravenous toxicity (nephrotoxicity) study in cynomolgus monkeys", "conditions": "IV infusion TID; for animals euthanized due to severe nephrotoxic effects: seven days, 3 animals per group", "procedure": "In vivo toxicity and toxicokinetic studies were performed by using cynomolgus monkeys. The laboratory that performed the animal studies is accredited by the Association for Assessment and Accreditation of Laboratory Animal Care (AAALAC), has an Animal Welfare Assurance issued by the Office of Laboratory Animal Welfare (OLAW), is registered with the United States Department of Agriculture (USDA), and has an Institutional Animal Care and Use Committee (IACUC) responsible for compliance with applicable laws and regulations concerning the humane care and use of laboratory animals.\nNaive female cynomolgus monkeys were acclimatized to study room for 28 days during which each animal was implanted with a permanent indwelling femoral catheter to permit continuous intravenous infusions. The animals were allowed surgical recovery period of at least 2 weeks before initiating dosing.\nPolymyxin B sulfate was from Sigma-Aldrich (catalogue number P0972, lot number BCBF8382V). On each day of use, appropriate quantities of NAB739, NAB815 or polymyxin B were weighed and dissolved in appropriate volumes of sterile saline to prepare a stock solution for each test article and positive control. A correction factor was used in the stock solution preparation to account for both the purity and sulfate content in each test article. Accordingly, the dose (such as 36 mg/kg/d) refers to the dose of the pure peptide as its free base form, not as its sulfate salt.\nThe doses were the following: polymyxin B 18 mg/kg/d (Group 1), polymyxin B 24 mg/kg/d (Group 2), NAB739 24 mg/kg/d (Group 3), NAB739 36 mg/kg/d (Group 4), NAB815 24 mg/kg/d (Group 5), NAB815 36 mg/kg/d (Group 6). Three animals were included in each study groups.\n(§1) For seven days, the animals were dosed by intravenous (IV) infusion three times daily (TID) at a dose volume of 10 mL/kg for 1 hour (± 10 minutes), 8 ± 0.5 hours apart. The day of initial dose administration was designated study Day 1, with subsequent days consecutively numbered. Days prior to the initial dose administration were consecutively numbered with the final day of acclimation referenced as Day -1.\n(§2) The following parameters were evaluated at designed intervals: clinical observations, body weights, clinical pathology (hematology, coagulation, serum chemistry, urinalysis including urine sediments and urine chemistry), toxi-cokinetics (plasma and urine) and anatomic pathology (kidney). In cases of animals sacrificed on an unscheduled basis, samples were taken on the day of the sacrifice.\nOn the day of necropsy, animals were sedated with ketamine, weighed, and anesthetized with an intravenous injection of a commercial pentobarbital and phenytoin solution, followed by exsanguinations.\nAt necropsy, gross observations and organ weights were recorded, and specific tissues were collected. Histopathology was conducted on sections of kidney stained with hematoxylin and eosin (H&E).\nThe figures also show Urine N-acetyl-β-D-glucosaminidase/urine creatinine ratio (U-NAG/Crea; Fig. 3) and Urine Gamma Glutamyltransferase/urine creatinine ratio (U-GGT/Crea; Fig. 4), both urine biomarkers for kidney injury, in those animals. S-Crea and U-Crea were measured by using an Olympus Analyzer (OA) and the modified Jaffe method, S-BUN by using OA and urease/L-glutamate dehydrogenase. U-NAG was measured by using OA/enzymatic, and U-GGT by using OA and glutamyl-carboxy-p-nitroanilide IFCC.\nThe presence of the following nephropathological parameters was recorded in each animal: tubular basophilia (regeneration), tubular degeneration/necrosis, infiltration (by mononuclear and/or mixed inflammatory cells), tubular dilatation, and tubular casts."}, "[2]": {"test": "Toxicokinetics (plasma and urine levels by LC-MS/MS) in cynomolgus monkeys", "procedure": "as §1, §2\nPlasma and urine concentrations for toxicokinetic (TK) studies were determined by using liquid chromatograph interfaced with a mass spectrometer after precipitation of proteins. A sample (100 µL) was mixed with internal standard solution in water:formic acid (99:1 v/v; […]). Then, 600µL of 100:1 acetonitrile:formic acid was added. The plates were centrifuged at 3200 rpm for 5 minutes. Using a Tomtec Quadra96, a 450 µL aliquot was transferred to a new 96-well plate and dried under nitrogen at 40°C. Then, 200 µL of water:methanol:formic acid (85:15:1 1 v/v) was added and the plate sealed for LC-MS/MS injection. LC-MS system consisted of Waters Acquity liquid chromatograph interfaced with a Thermo Scientific TSQ Quantitative triple quadrupole MS with ionization in the positive ion mode. Each sample (20 µL) was injected onto a Waters Acquity BEH Shield RP18 column (2.1 x 50 mm; 1.7 µm) equilibrated at 50°C. Mobile Phase A was 85:15:1 v/v water:methanol:formic acid. Mobile Phase B was 50:50:1 v/v acetonitrile:methanol:formic acid.\nPeak area ratios from the calibration standard responses were regressed using a (1/concentration^2) linear fit for polymyxin B using colistin as the internal standard. For NAB739 and NAB815, peak areas from the calibration standard responses were regressed using a (1/concentration^2) quadratic fit (without the use of an internal standard).\nToxicokinetic analysis was performed by using WinNonlin Phoenix version 6.3 software (Pharsight, Cary, NC). For plasma TK, noncompartmental IV infusion model was used.\nThe data is from the cynomolgus monkey studies described in the Example 3, where the peptides were administered as a 1-hour intravenous infusion thrice a day. The plasma and urine levels of the peptides were determined as in Example 3."}, "[3]": {"conditions": "the six animals at 18 mg/kg/d and 24 mg/kg/d"}}, "note": "“And” between values parts separate entries of the source, which are not always exact repeats. Identical values can stand only once.", "data": [{"substance": "Polymyxin B", "values": [{"measurement": "MIC", "setting": "E. coli JMI 109", "result": "0.5 to 1", "unit": "µg/mL"}, {"measurement": "animals euthanized due to severe nephrotoxic effects", "setting": "[1]; 18 mg/kg/d", "result": "all the three animals"}, {"measurement": "animals euthanized due to severe nephrotoxic effects", "setting": "[1]; 24 mg/kg/d", "result": "Two animals"}, {"measurement": "S-BUN, S-Crea and U-GGT/Crea", "setting": "[1]; [3]", "result": "remarkably increased"}, {"measurement": "U-NAG/Crea", "setting": "[1]; [3]", "result": "remarkably increased in five of the animals"}, {"measurement": "concentration in the urine", "setting": "[2]; after infusion at 8 mg/kg, highest found either in the 0-4 h or 4-8 h sample, given for each animal, 8 mg/kg", "result": "7000 ng/mL and 9000 ng/mL and 15000 ng/mL"}, {"measurement": "0-8 h recovery in urine", "setting": "[2]; after the infusion of 8 mg/kg, percentages given for each animal, 8 mg/kg", "result": "1 % of the dose and 2 % of the dose (2×)"}, {"measurement": "Area under the concentration-time from time 0 h to 8 h (AUCs 0-8h)", "setting": "[2]; plasma, after the infusion of 8 mg/kg, day 1", "result": "112 (SD=5) hr*µg/mL"}]}]}
